This is an account of results in patent US20260265305A1, “POLYPEPTIDE DERIVATIVE FOR ORAL DELIVERY” (Hangzhou Sciwind Biosciences Co., Ltd., priority 2023, published 2026).

For data set [1] the following is noted: dog, in vivo, 7 mg.
Description: Whole blood of the animals was collected pre dose (−10 min) and 2 h, 4 h, and 8 h post dose on Day 1, pre dose (−10 min) and 2 h and 4 h post dose on Day 2-Day 4, and pre dose (−10 min) and 2 h, 4 h, 8 h, 24 h, 48 h, and 72 h post dose on Day 5, and processed into plasma using heparin sodium as an anticoagulant. […] Experimental data was plotted using GraphPad Prism9.3.1.
Data set [2] addresses T1, amylin receptor (hAMY3R) (Homo sapiens, UniProt O60896+P30988).
T1 construct: host or cells: CHO-K1/Ga15/AMY3 cells, further stably transfected with a CRE-luciferase plasmid
T1 sequence (P30988 25-474): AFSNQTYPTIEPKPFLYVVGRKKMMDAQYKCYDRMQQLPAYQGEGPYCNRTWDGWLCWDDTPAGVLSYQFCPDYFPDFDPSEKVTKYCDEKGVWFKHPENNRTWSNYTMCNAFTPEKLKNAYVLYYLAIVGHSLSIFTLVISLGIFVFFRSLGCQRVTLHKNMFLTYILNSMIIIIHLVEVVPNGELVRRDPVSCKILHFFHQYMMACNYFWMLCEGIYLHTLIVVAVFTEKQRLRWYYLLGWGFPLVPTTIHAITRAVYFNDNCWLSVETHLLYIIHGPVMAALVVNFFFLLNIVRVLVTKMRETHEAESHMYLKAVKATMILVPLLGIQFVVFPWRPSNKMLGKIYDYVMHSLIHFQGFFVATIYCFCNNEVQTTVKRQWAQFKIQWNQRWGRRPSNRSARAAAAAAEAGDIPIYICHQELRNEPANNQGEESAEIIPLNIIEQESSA
T1 sequence (O60896 24-148): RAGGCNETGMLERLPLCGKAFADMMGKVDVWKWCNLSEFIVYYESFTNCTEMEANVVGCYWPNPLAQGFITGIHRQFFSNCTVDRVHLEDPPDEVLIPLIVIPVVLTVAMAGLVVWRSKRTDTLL
In words: Amylin receptor agonism testing, CRE-luciferase assay in stably transfected CHO-K1/Ga15/AMY3 cells. Type of data set: cell-based. Particulars: incubation of 4 hours (N2 and N3 retested); Table 3 lower part; read-out: EC50, activity against the amylin receptor in cells.
Excerpt: The objective of this assay is to test the potency of the polypeptide derivatives in the present application on amylin and calcitonin receptors in vitro using a luciferase assay.
Using the standard protocol for construction of an amylin receptor/CRE-luc cell line, CHO-K1/Ga15/AMY3 cells (purchased from GenScript, with the calcitonin receptor and the receptor activity modifying peptide (RAMP) constructed already) were transfected with a plasmid containing a luciferase expression cassette driven by multiple copies of cAMP response elements (CREs). The cells were cultured in an F12 medium containing 200 ug/mL Zeocin, 2 ug/mL puromycin, 100 ug/mL hygromycin, and 400 ug/mL G418 to afford a stably transfected amylin receptor/CRE-luc cell line.
To each well of a white 96-well plate was added 50 μL of the tested sample solution at a respective concentration.
The stably transfected amylin receptor/CRE-luc CHO cells were resuspended in the growth medium at a certain density, and 50 μL of the cell suspension was added at a density of about 20,000 cells per well to the white 96-well plate containing the tested sample solution. After incubation of 24 hours at 37° C. and 5% CO2, 100 μL of a Luciferase substrate was added to each well, incubated for 3 minutes, and finally was tested for luminescence on SpectraMax L (Molecular Devices) with the software SoftMax Pro 7.0.3 GxP. A standard curve was plotted using the fluorescent intensities for calculation of EC50.

Data set [3] deals with T2, amylin receptor (hAMY3R) (human (printed as hAMY3R), UniProt P30988 25-474; O60896 24-148).
T2 sequence (looked up) 1: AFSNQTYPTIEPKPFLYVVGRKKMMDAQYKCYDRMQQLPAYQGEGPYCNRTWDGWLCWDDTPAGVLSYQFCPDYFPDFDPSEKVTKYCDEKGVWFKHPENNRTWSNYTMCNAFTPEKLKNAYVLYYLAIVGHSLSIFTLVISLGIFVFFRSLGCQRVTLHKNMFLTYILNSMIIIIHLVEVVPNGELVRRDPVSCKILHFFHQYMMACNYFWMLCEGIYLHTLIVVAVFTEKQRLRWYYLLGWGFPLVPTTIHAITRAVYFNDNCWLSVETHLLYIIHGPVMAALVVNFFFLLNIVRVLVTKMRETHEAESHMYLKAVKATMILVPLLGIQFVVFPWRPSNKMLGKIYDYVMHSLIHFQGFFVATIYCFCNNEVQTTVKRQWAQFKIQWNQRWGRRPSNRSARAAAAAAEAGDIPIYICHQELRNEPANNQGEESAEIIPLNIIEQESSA
T2 sequence (looked up) 2: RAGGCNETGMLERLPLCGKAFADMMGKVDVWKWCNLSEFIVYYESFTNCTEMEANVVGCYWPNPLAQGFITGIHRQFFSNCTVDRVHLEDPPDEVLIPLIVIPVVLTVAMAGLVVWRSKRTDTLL
In words: cell-based or functional assay.

Numbered stars: 1 amine (or outer) side, 2 acyl side, 3 side chain; on linkers, the order of the positions; unused ones are H or OH. Bridge positions count the residues as written; N and C are the ends. Square brackets hold non-standard residues; d marks the D form. Ends that are not written are not given here. Peptide text beside a SMILES is read from it. * marks the point of attachment. C20 diacid = O=C(O)CCCCCCCCCCCCCCCCCCC(=O)*; C18 diacid = O=C(O)CCCCCCCCCCCCCCCCC(=O)*; βAsp = O=C(O)[C@H](CC(=O)[*:2])N[*:1]; Hyp = O=C(O)[C@@H]1C[C@@H](O)CN1; AEEA = NCCOCCOCC(=O)O

On to `CC[C@H](C)[C@H](NC(=O)[C@@H]1CCCN1C(=O)[C@H](CCCCN)NC(=O)[C@H](CC(C)C)NC(=O)[C@H](CC(N)=O)NC(=O)[C@H](CC(N)=O)NC(=O)[C@H](CO)NC(=O)[C@H](CO)NC(=O)[C@H](Cc1c[nH]cn1)NC(=O)[C@H](CCCNC(=N)N)NC(=O)[C@H](CC(C)C)NC(=O)[C@H](Cc1ccccc1)NC(=O)[C@H](CC(=O)O)NC(=O)[C@H](C)NC(=O)[C@H](CC(C)C)NC(=O)[C@H](CCCNC(=N)N)NC(=O)[C@H](CCC(N)=O)NC(=O)[C@@H](NC(=O)[C@H](C)NC(=O)[C@@H]1CSSC[C@H](NC(=O)[C@H](CCCCN)NC(=O)COCCOCCNC(=O)COCCOCCNC(=O)C[C@H](NC(=O)CCCCCCCCCCCCCCCCCCC(=O)O)C(=O)O)C(=O)N[C@@H](CC(N)=O)C(=O)N[C@@H]([C@@H](C)O)C(=O)N[C@@H](C)C(=O)N[C@@H]([C@@H](C)O)C(=O)N1)[C@@H](C)O)C(=O)N[C@@H](CC(C)C)C(=O)N1CCC[C@H]1C(=O)N1CCC[C@H]1C(=O)N[C@H](C(=O)N[C@@H](CC(N)=O)C(=O)N[C@H](C(=O)NCC(=O)N[C@@H](CO)C(=O)N[C@@H](CC(N)=O)C(=O)N[C@H](C(=O)N1C[C@H](O)C[C@H]1C(N)=O)[C@@H](C)O)C(C)C)[C@@H](C)O` [N2] ({C20 diacid-βAsp-AEEA-AEEA}-KCNTATCATQRLADFLRHSSNNLKPILPPTNVGSNT[Hyp]-NH2; disulfide 2-7 (inferred)), for which the oral bioavailability result in data set [1] is “extraordinarily high oral bioavailability”.

In general, EC50 refers to the concentration needed to bring the measured effect to its halfway point. Take `CC[C@H](C)[C@H](NC(=O)[C@@H]1CCCN1C(=O)[C@H](CCCCN)NC(=O)[C@H](CC(C)C)NC(=O)[C@H](CC(N)=O)NC(=O)[C@H](CC(N)=O)NC(=O)[C@H](CO)NC(=O)[C@H](CO)NC(=O)[C@H](Cc1c[nH]cn1)NC(=O)[C@H](CCCNC(=N)N)NC(=O)[C@H](CC(C)C)NC(=O)[C@H](Cc1ccccc1)NC(=O)[C@H](CC(=O)O)NC(=O)[C@H](C)NC(=O)[C@H](CC(C)C)NC(=O)[C@H](CCCNC(=N)N)NC(=O)[C@H](CCC(N)=O)NC(=O)[C@@H](NC(=O)[C@H](C)NC(=O)[C@@H]1CSSC[C@H](NC(=O)[C@H](CCCCN)NC(=O)COCCOCCNC(=O)COCCOCCNC(=O)C[C@H](NC(=O)CCCCCCCCCCCCCCCCC(=O)O)C(=O)O)C(=O)N[C@@H](CC(N)=O)C(=O)N[C@@H]([C@@H](C)O)C(=O)N[C@@H](C)C(=O)N[C@@H]([C@@H](C)O)C(=O)N1)[C@@H](C)O)C(=O)N[C@@H](CC(C)C)C(=O)N1CCC[C@H]1C(=O)N1CCC[C@H]1C(=O)N[C@H](C(=O)N[C@@H](CC(N)=O)C(=O)N[C@H](C(=O)NCC(=O)N[C@@H](CO)C(=O)N[C@@H](CC(N)=O)C(=O)N[C@H](C(=O)N1C[C@H](O)C[C@H]1C(N)=O)[C@@H](C)O)C(C)C)[C@@H](C)O` [N3] ({C18 diacid-βAsp-AEEA-AEEA}-KCNTATCATQRLADFLRHSSNNLKPILPPTNVGSNT[Hyp]-NH2; disulfide 2-7): the EC50 on amylin receptor (hAMY3R) [2] is 0.001 nM. In addition, the oral bioavailability result in data set [1] is on record as “significantly improving the bioavailability”.

In the case of ASQLSTAVLGRLSQELHRLQDYPRTDVGSGSP-NH2 [M5], the “EC50, CRE-luciferase reporter in amylin receptor CHO cells, 24 h” value with amylin receptor (hAMY3R) [3] stood at 0.033 nM.
